# Measurements from ChEMBL document CHEMBL4011606, “Synthesis and antiplasmodial activity of novel indoleamide derivatives bearing sulfonamide and triazole pharmacophores” (Eur J Med Chem, 2017).
# Experiments:
# Plasmodium falciparum [1] = test: Antiplasmodial activity against chloroquine-sensitive Plasmodium falciparum 3D7 infected in human erythrocytes measured after 72 hrs by SYBR green 1 dye based fluorescence assay; type: functional, cell-based; settings: 3D7, 72 h
# [2] = Cytotoxicity against African green monkey Vero cells measured after 3 days by resazurin dye based fluorescence assay; type: cell-based; settings: chlorocebus sabaeus
# [3] = Resistance index, ratio of IC50 for chloroquine-resistant Plasmodium falciparum K1 to IC50 for chloroquine-sensitive Plasmodium falciparum 3D7; type: functional
# Plasmodium falciparum [4] = test: Antiplasmodial activity against chloroquine-resistant Plasmodium falciparum K1 infected in human erythrocytes measured after 72 hrs by SYBR green 1 dye based fluorescence assay; type: functional, cell-based; settings: K1, 72 h
# [5] = Selectivity index, ratio of CC50 for African green monkey Vero cells to IC50 for chloroquine-resistant Plasmodium falciparum K1; type: toxicity; settings: read-out: Ratio CC50/IC50
# [6] = Selectivity index, ratio of CC50 for African green monkey Vero cells to IC50 for chloroquine-sensitive Plasmodium falciparum 3D7; type: toxicity; settings: read-out: Ratio CC50/IC50
Compound,IC50 (Plasmodium falciparum [1]) [µM],CC50 at 72 h [2] [µM],Ratio IC50 [3],IC50 (Plasmodium falciparum [4]) [µM],selectivity ratio [5],selectivity ratio [6]
O=C(CCCc1cn(Cc2ccc(Cl)cc2)c2ccccc12)NC12CC3CC(CC(C3)C1)C2,3.4,> 250,1.55,5.3,> 47,> 73
O=C(Cn1cc(Cn2cc(CCCC(=O)NC34CC5CC(CC(C5)C3)C4)c3ccccc32)nn1)Nc1ccc(F)cc1,> 10,–,< 0.86,8.68,–,–
O=C(Cn1cc(Cn2cc(CCCC(=O)NC3CCCCCC3)c3ccccc32)nn1)Nc1ccc(F)cc1,8.12,–,0.96,7.82,–,–
O=C(Cn1cc(Cn2cc(CCCC(=O)NC3CCCCCC3)c3ccccc32)nn1)Nc1ccc(I)cc1,> 10,–,> 1,> 10,–,–
O=C(CCCc1cn(S(=O)(=O)c2ccc(F)cc2)c2ccccc12)NC12CC3CC(CC(C3)C1)C2,2.94,> 250,1.26,3.73,> 67,> 85
O=C(CCCc1cn(Cc2ccc(F)cc2)c2ccccc12)NC12CC3CC(CC(C3)C1)C2,2.2,> 250,1.59,3.5,> 71,> 113
CCCCCCCn1cc(CCCC(=O)NC23CC4CC(CC(C4)C2)C3)c2ccccc21,1.91,> 250,1.84,3.53,> 70,> 130
O=C(CCCc1cn(Cc2cn(Cc3ccccc3)nn2)c2ccccc12)NC12CC3CC(CC(C3)C1)C2,2.16,> 250,> 4.62,> 10,> 25,> 115
C=CCn1cc(CCCC(=O)NC2CCCCCC2)c2ccccc21,> 10,–,> 1,> 10,–,–
O=C(CCCc1cn(Cc2ccccc2)c2ccccc12)NC1CCCCCC1,9.56,–,> 1.04,> 10,–,–
O=C(Cc1c[nH]c2ccccc12)NCc1cn(CC(=O)Nc2ccc(Br)cc2)nn1,8.77,–,> 1.14,> 10,–,–
Cn1cc(CCCC(=O)NC2CCCCCC2)c2ccccc21,> 10,–,> 1,> 10,–,–
Cc1ccc(NC(=O)Cn2cc(CNC(=O)Cc3c[nH]c4ccccc34)nn2)cc1C,7.02,–,0.87,6.46,–,–
O=C(CCCc1cn(S(=O)(=O)c2cccc3ccccc23)c2ccccc12)NC1CCCCCC1,4.67,> 250,0.78,3.68,> 67,> 53
O=C(CCCc1cn(CCN2CCCCC2)c2ccccc12)NC12CC3CC(CC(C3)C1)C2,5.63,–,> 1.37,> 10,–,–
O=C(Cn1cc(Cn2cc(CCCC(=O)NC3CCCCCC3)c3ccccc32)nn1)Nc1ccccc1Cl,> 10,–,> 1,> 10,–,–
O=C(CCCc1c[nH]c2ccccc12)NC1CCCCCC1,> 10,–,> 1,> 10,–,–
O=C(Cn1cc(Cn2cc(CCCC(=O)NC34CC5CC(CC(C5)C3)C4)c3ccccc32)nn1)Nc1ccc(I)cc1,> 10,–,> 1,> 10,–,–
O=C(Cc1c[nH]c2ccccc12)NCc1cn(CC(=O)Nc2ccc(I)cc2)nn1,3.83,> 250,0.58,2.25,> 111,> 65
O=C(Cc1c[nH]c2ccccc12)NCc1cn(CC(=O)Nc2ccc(Cl)cc2)nn1,> 10,–,> 1,> 10,–,–
O=C(Cn1cc(Cn2cc(CCCC(=O)NC3CCCCCC3)c3ccccc32)nn1)Nc1ccc(Cl)cc1,> 10,–,> 1,> 10,–,–
CC(C)(C)c1ccc(S(=O)(=O)n2cc(CCC(=O)NC34CC5CC(CC(C5)C3)C4)c3ccccc32)cc1,5.8,–,1.06,6.19,–,–
O=C(CCCc1cn(Cc2ccc(Cl)cc2)c2ccccc12)NC1CCCCCC1,> 10,–,> 1,> 10,–,–
CCN(CC)CCCC(C)Nc1ccnc2cc(Cl)ccc12 (stereo not given) [CHLOROQUINE],–,226,–,–,–,–
Cc1ccc(NC(=O)Cn2cc(Cn3cc(CCCC(=O)NC4CCCCCC4)c4ccccc43)nn2)cc1C,> 10,–,> 1,> 10,–,–
O=C(Cn1cc(Cn2cc(CCCC(=O)NC3CCCCCC3)c3ccccc32)nn1)Nc1ccc(F)c(Cl)c1,9.9,–,0.87,8.64,–,–

Compound,IC50 (Plasmodium falciparum [1]) [µM],CC50 at 72 h [2] [µM],Ratio IC50 [3],IC50 (Plasmodium falciparum [4]) [µM],selectivity ratio [5],selectivity ratio [6]
O=C(CCCc1cn(S(=O)(=O)c2ccccc2)c2ccccc12)NC12CC3CC(CC(C3)C1)C2,5.04,> 250,0.48,2.46,> 101,> 49
O=C(Cn1cc(Cn2cc(CCCC(=O)NC34CC5CC(CC(C5)C3)C4)c3ccccc32)nn1)Nc1ccc(Br)cc1,> 10,–,< 0.87,8.78,–,–
CC(C)(C)c1ccc(S(=O)(=O)n2cc(CCCC(=O)NC3C4CC5CC(C4)CC3C5)c3ccccc32)cc1 (stereo not given),3.35,> 250,1.27,4.26,> 58,> 74
CC(C)(C)c1ccc(S(=O)(=O)n2cc(CCCC(=O)NC3CCCCCC3)c3ccccc32)cc1,2,> 250,0.8,1.6,> 156,> 125
O=C(CCCc1cn(Cc2ccc(Br)cc2)c2ccccc12)NC1CCCCCC1,> 10,–,> 1,> 10,–,–
Cc1ccc(S(=O)(=O)n2cc(CCCC(=O)NC3CCCCCC3)c3ccccc32)cc1,3.38,> 250,0.96,3.27,> 76,> 73
O=C(Cn1cc(Cn2cc(CCCC(=O)NC3CCCCCC3)c3ccccc32)nn1)Nc1ccc(Br)cc1,> 10,–,< 0.87,8.7,–,–
O=C(CCCc1cn(Cc2ccc(Br)cc2)c2ccccc12)NC12CC3CC(CC(C3)C1)C2,3.15,> 250,1.06,3.35,> 74,> 79
O=C(Cc1c[nH]c2ccccc12)NCc1cn(CC(=O)Nc2ccc(F)c(Cl)c2)nn1,> 10,–,> 1,> 10,–,–
O=C(CCCc1cn(CCN2CCCC2)c2ccccc12)NC12CC3CC(CC(C3)C1)C2,7.03,–,1.37,9.67,–,–
Cc1ccc(S(=O)(=O)n2cc(CCCC(=O)NC34CC5CC(CC(C5)C3)C4)c3ccccc32)cc1,3.99,> 250,0.98,3.95,> 63,> 62
O=C(CCCc1cn(Cc2ccccc2)c2ccccc12)NC12CC3CC(CC(C3)C1)C2,3.6,> 250,1.16,4.2,> 59,> 69
O=C(CCCc1cn(S(=O)(=O)c2ccccc2)c2ccccc12)NC1CCCCCC1,7.37,–,0.82,6.06,–,–
Cc1cc(S(=O)(=O)n2cc(CCCC(=O)NC3CCCCCC3)c3ccccc32)c(C)cc1Cl,2.17,> 250,1,2.19,> 114,> 115
CCCn1cc(CCCC(=O)NC23CC4CC(CC(C4)C2)C3)c2ccccc21,4.79,–,1.53,7.37,–,–
C=CCn1cc(CCCC(=O)NC23CC4CC(CC(C4)C2)C3)c2ccccc21,5.04,–,1.5,7.56,–,–
O=C(Cc1c[nH]c2ccccc12)NCc1cn(CC(=O)Nc2ccccc2Cl)nn1,> 10,–,> 1,> 10,–,–
O=C(CCCc1cn(CCN2CCOCC2)c2ccccc12)NC1CCCCCC1,4.15,> 250,1.77,7.04,> 35,> 60
Cc1ccc(NC(=O)Cn2cc(Cn3cc(CCCC(=O)NC45CC6CC(CC(C6)C4)C5)c4ccccc43)nn2)cc1C,> 10,> 250,< 0.25,2.5,> 100,> 25
CC(C)(C)c1ccc(S(=O)(=O)n2cc(CCC(=O)NC3CCCCCC3)c3ccccc32)cc1,6.24,–,0.92,5.76,–,–
O=C(Cc1c[nH]c2ccccc12)NCc1cn(CC(=O)Nc2ccc(F)cc2)nn1,5.16,–,1.43,7.38,–,–
O=C(Cn1cc(Cn2cc(CCCC(=O)NC34CC5CC(CC(C5)C3)C4)c3ccccc32)nn1)Nc1ccc(Cl)cc1,> 10,–,> 1,> 10,–,–
Cn1cc(CCCC(=O)NC23CC4CC(CC(C4)C2)C3)c2ccccc21,9.73,–,> 1.02,> 10,–,–
O=C(CCCc1c[nH]c2ccccc12)NC12CC3CC(CC(C3)C1)C2,> 10,–,> 1,> 10,–,–
O=C(CCCc1cn(S(=O)(=O)c2cccs2)c2ccccc12)NC1CCCCCC1,> 10,–,< 0.55,5.55,–,–
O=C(CCCc1cn(Cc2cn(Cc3ccccc3)nn2)c2ccccc12)NC1CCCCCC1,> 10,–,> 1,> 10,–,–
